16 compounds from patent publication US10221172B2, “Benzothiazole and benzisothiazole-substituted compounds as mGluR4 allosteric potentiators, compositions, and methods of treating neurological dysfunction” (Vanderbilt University, priority 2015, dated 2019) can be followed below.

One may read the EC50 as the concentration needed to bring the measured effect to its halfway point.

SMILES strings stand for the structures.

For this experiment, the target named is human mGluR4 (Homo sapiens (Human), UniProt Q14833). The experiment can be described thus: mGluR4 potentiation assay, CHO cells transfected with human mGluR4, Ca2+-sensitive dye, EC20 agonist. The experiment is classed as cell-based. The conditions noted are these: potentiation of mGluR4. As to the method:
The disclosed compounds and compositions can be evaluated for their ability to act as a potentiator of metabotropic glutamate receptor activity, in particular mGluR4 activity, by any suitable known methodology known in the art. For example, Chinese Hamster Ovary (CHO) cells transfected with human mGluR4 or HEK cells co-transfected with rat mGluR4 and the G-protein regulated Inwardly Rectifying Potassium channel (GIRK) were plated in clear bottom assay plates for assay in a Hamamatsu FDSS Fluorometric Plate Reader. The cells were loaded with either a Ca2+-sensitive fluorescent dye or the thallium responsive dye and the plates were washed and placed into a suitable kinetic plate reader. For human mGluR4 assays, a fluorescence baseline was established for 3-5 seconds, the disclosed compounds were then added to the cells, and the response in cells was measured. Approximately two and a half minutes later, a concentration of mGluR4 orthosteric agonist (e.g. glutamate or L-AP4) eliciting approximately 20% (EC20) of the maximal agonist response was added to the cells, and the response was measured. Two minutes later, a concentration of mGluR4 agonist (e.g. glutamate or L-AP4) eliciting 80% (EC80) of the maximal agonist response was added to the cells, and the response was measured. For rat mGluR4/GIRK experiments, a baseline was established for approximately five seconds, disclosed compounds were added, and either an EC20 or EC80 concentration of agonist was added approximately two and one half minutes later. Potentiation of the agonist response of mGluR4 by the disclosed compounds was observed as an increase in response to the EC20 concentration of agonist in the presence of compound compared to the response to agonist in the absence of compound. Similarly, antagonism of the agonist response of mGluR4 by the disclosed compounds was observed as a decrease in response to the EC80 concentration of agonist in the presence of compound compared to the response to agonist in the absence of compound.
The above described assay operated in two modes. In the first mode, a range of concentrations of the disclosed compounds are added to cells, followed by a single fixed concentration of agonist. If the compound acts as a potentiatior, an EC50 value for potentiation and a maximum extent of potentiation by the compound at this concentration of agonist is determined by non-linear curve fitting. If the compound acts as a noncompetitive antagonist, an IC50 value is determined by non-linear curve fitting. In the second mode, several fixed concentrations of the disclosed compounds are added to various wells on a plate, followed by a range in concentrations of agonist for each concentration of disclosed compound. The EC50 values for the agonist at each concentration of compound are determined by non-linear curve fitting. A decrease in the EC50 value of the agonist with increasing concentrations of the sample compound (a leftward shift of the agonist concentration-response curve) is an indication of the degree of mGluR4 potentiation at a given concentration of the sample compound. A decrease in the maximal response of the agonist with increasing concentrations of the sample compounds, with or without a rightward shift in agonist potency, is an indication of the degree of noncompetitive antagonism at mGluR4. The second mode also indicates whether the sample compounds also affect the maximum response to mGluR4 to agonists.

Setting [1] is: main compound table, species not given.
The mark [2] stands for this setting: summary list repeated at the end of the table, species not stated.

Sequence of human mGluR4 (Q14833 33-912): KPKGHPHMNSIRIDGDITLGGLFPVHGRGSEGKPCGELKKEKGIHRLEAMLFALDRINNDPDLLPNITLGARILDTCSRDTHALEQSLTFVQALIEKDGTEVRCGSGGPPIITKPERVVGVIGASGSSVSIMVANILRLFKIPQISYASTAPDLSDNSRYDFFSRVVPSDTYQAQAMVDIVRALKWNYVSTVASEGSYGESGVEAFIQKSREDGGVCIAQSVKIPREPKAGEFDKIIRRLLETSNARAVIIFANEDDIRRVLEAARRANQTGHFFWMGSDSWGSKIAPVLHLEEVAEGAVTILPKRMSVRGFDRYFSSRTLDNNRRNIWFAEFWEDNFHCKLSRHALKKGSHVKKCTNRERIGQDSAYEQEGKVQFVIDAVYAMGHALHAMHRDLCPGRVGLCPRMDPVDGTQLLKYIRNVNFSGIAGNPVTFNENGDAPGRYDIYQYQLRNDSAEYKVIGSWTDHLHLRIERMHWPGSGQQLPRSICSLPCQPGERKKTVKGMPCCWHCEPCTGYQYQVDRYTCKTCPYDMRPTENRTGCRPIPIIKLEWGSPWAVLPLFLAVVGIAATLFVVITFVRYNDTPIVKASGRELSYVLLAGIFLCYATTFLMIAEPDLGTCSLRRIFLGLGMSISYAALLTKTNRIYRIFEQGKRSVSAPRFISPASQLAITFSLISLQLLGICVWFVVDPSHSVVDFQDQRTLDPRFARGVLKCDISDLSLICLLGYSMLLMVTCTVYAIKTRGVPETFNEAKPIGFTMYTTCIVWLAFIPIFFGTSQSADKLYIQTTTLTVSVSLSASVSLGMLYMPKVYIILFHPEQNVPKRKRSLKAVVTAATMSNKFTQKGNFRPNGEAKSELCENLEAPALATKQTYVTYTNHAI

For `FC1CCN(Cc2nsc3cc(Nc4n[nH]c5cccnc45)cnc23)CC1` [Example 51, 3-((4-fluoropiperidin-1-yl)methyl)-N-(1H-pyrazolo[4,3-b]pyridin-3-yl)isothiazolo[4,5-b] pyridin-6-amine], the half-maximal effective concentration (EC50) by setting is: under setting [1], 247 nM; under setting [2], 247 nM.
As for `CN(Cc1nsc2cc(Nc3n[nH]c4cccnc34)cnc12)C1CC(F)(F)C1` [Example 52, 3-(((3,3-difluoro-cyclobutyl) (methyl)amino)methyl)-N-(1H-pyrazolo[4,3-b]pyridin-3-yl)isothiazolo[4,5-b] pyridin-6-amine], the EC50 under setting [1] stood at 334 nM and the EC50 under setting [2] worked out at 334 nM.
Take `CN(Cc1nsc2cc(Nc3n[nH]c4ncccc34)cnc12)C1CC(F)(F)C1` [Example 53, 3-(((3,3-difluorocyclobutyl) (methyl)amino)methyl)-N-(1H-pyrazolo[3,4-b]pyridin-3-yl)isothiazolo[4,5-b]pyridin-6-amine]: the EC50 reads like this: under setting [1], 568 nM; under setting [2], 568 nM.
Regarding `c1cnc2c(Nc3cnc4c(CN5CCOCC5)nsc4c3)n[nH]c2c1` [Example 54, 3-(morpholinomethyl)-N-(1H-pyrazolo[4,3-b]pyridin-3-yl)isothiazolo[4,5-b] pyridin-6-amine], the EC50 runs as follows: under setting [1], 630 nM; under setting [2], 630 nM.
On to `c1cnc2[nH]nc(Nc3cnc4c(CN5CCOCC5)nsc4c3)c2c1` [Example 55, 3-(morpholinomethyl)-N-(1H-pyrazolo[3,4-b]pyridin-3-yl)isothiazolo[4,5-b] pyridin-6-amine], for which the half-maximal effective concentration (EC50) reads like this: under setting [1], 1030 nM; under setting [2], 1030 nM.
Consider `CC(C)(C)C1CCN(Cc2nsc3cc(Nc4n[nH]c5cccnc45)cnc23)CC1` [Example 56, 3-((4-(tert-butyl)piperidin-1-yl)methyl)-N-(1H-pyrazolo[4,3-b]pyridin-3-yl)isothiazolo[4,5-b] pyridin-6-amine], for which the EC50 came out at 1390 nM under setting [1] and 1390 nM under setting [2].
`CC(C)(C)C1CCN(Cc2nsc3cc(Nc4n[nH]c5ncccc45)cnc23)CC1` [Example 57, 3-((4-(tert-butyl)piperidin-1-yl)methyl)-N-(1H-pyrazolo[3,4-b]pyridin-3-yl)isothiazolo[4,5-b] pyridin-6-amine]: the EC50 under setting [1] was found to be 4130 nM and the EC50 under setting [2] amounted to 4130 nM.
Turning to `c1cnc2c(Nc3cnc4c(CN5CCCC5)nsc4c3)n[nH]c2c1` [Example 58, N-(1H-pyrazolo[4,3-b]pyridin-3-yl)-3-(pyrrolidin-1-ylmethyl) isothiazolo [4,5-b]pyridin-6-amine], the EC50 stood at 3740 nM under setting [1] and 3740 nM under setting [2].
With `C[C@H]1CN(Cc2nsc3cc(Nc4n[nH]c5cccnc45)cnc23)CCO1` [Example 59, (S)-3-((2-methylmorpholino)methyl)-N-(1H-pyrazolo[4,3-b]pyridin-3-yl)isothiazolo[4,5-b] pyridin-6-amine], the EC50 under setting [1] turned out to be 353 nM and the EC50 under setting [2] was 353 nM.
Consider `CC1(C)CN(Cc2nsc3cc(Nc4n[nH]c5cccnc45)cnc23)CCO1` [Example 60], for which the EC50 is, setting by setting: under setting [1], 147 nM; under setting [2], 147 nM.
Regarding `FC1(F)CCCN(Cc2nsc3cc(Nc4n[nH]c5cccnc45)cnc23)C1` [Example 61, 3-((3,3-difluoropiperidin-1-yl)methyl)-N-(1H-pyrazolo[4,3-b]pyridin-3-yl)isothiazolo[4,5-b] pyridin-6-amine], the EC50 stood at 55.9 nM under setting [1] and 55.9 nM under setting [2].
For the compound `FC1(F)CCCN(Cc2nsc3cc(Nc4n[nH]c5ncccc45)cnc23)C1` [Example 62, 3-((3,3-difluoropiperidin-1-yl)methyl)-N-(1H-pyrazolo[3,4-b]pyridin-3-yl)isothiazolo[4,5-b] pyridin-6-amine], the concentration for a half-maximal effect (EC50) reads like this: under setting [1], 101 nM; under setting [2], 101 nM.
Consider `CC(=O)N1CCC(c2nsc3cc(Nc4n[nH]c5nccnc45)ccc23)CC1` [Example 63, 1-(4-(6-((1H-pyrazolo [3,4-b]pyrazin-3-yl)amino)benzo[d]isothiazol-3-yl)piperidin-1-yl)ethan-1-one], for which the EC50 runs as follows: under setting [1], 154 nM; under setting [2], 154 nM.
For `CC(=O)N1CCC(c2nsc3cc(Nc4n[nH]c5ncccc45)ccc23)CC1` [Example 64, 1-(4-(6-((1H-pyrazolo[3,4-b]pyridin-3-yl)amino)benzo[d]isothiazol-3-yl)piperidin-1-yl)ethan-1-one], the EC50 reads like this: under setting [1], 409 nM; under setting [2], 409 nM.
Take `O=C(C1CC1)N1CCC(c2nsc3cc(Nc4n[nH]c5cccnc45)ccc23)CC1` [Example 71, (4-(6-((1H-pyrazolo [4,3-b]pyridin-3-yl)amino)benzo[d]isothiazol-3-yl)piperidin-1-yl) (cyclopropyl) methanone]: the EC50 worked out at 388 nM under setting [1] and 388 nM under setting [2].
Consider `O=C(C1CCOCC1)N1CCC(c2nsc3cc(Nc4n[nH]c5cccnc45)ccc23)CC1` [Example 72, (4-(6-((1H-pyrazolo [4,3-b]pyridin-3-yl)amino)benzo[d]isothiazol-3-yl)piperidin-1-yl) (tetrahydro-2H-pyran-4-yl)methanone], for which the concentration for a half-maximal effect (EC50) came to 1200 nM under setting [1] and 1200 nM under setting [2].
